Measured values from patent US7439041B2 (Novartis Vaccines and Diagnostics, Inc., priority 2003, dated 2008).

Key:
[1] = target: T1, PrP^Sc (Mus musculus, UniProt P04925); assay type: binding; set-up: key to Western Blot: −: Visually evaluated relative signal intensity; +/−: Visually evaluated relative signal intensity; +: Visually evaluated relative signal intensity; ++: Visually evaluated relative signal intensity; +++: Visually evaluated relative signal intensity; ++++: Visually evaluated relative signal intensity; +++++: Visually evaluated relative signal intensity
[2] = target: T1, PrP^Sc; assay type: binding
Target sequence in this assay (P04925 23-230 limits assumed): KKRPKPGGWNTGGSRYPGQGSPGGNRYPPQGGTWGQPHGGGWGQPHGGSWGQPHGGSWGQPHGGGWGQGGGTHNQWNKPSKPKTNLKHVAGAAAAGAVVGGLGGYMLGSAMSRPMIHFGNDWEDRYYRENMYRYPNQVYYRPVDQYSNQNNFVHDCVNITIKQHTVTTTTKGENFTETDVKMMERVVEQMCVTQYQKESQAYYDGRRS

| Substance | Western Blot [1] | also measured |
| --- | --- | --- |
| (GG)C(GGG)RPMIHFGNDWEDRYYRENMYR(GGG)C [SEQ ID NO: 46] | + |  |
| (GGG)AKRPKPGG [SEQ ID NO: 104] | + |  |
| (GGG)GPKRKGPK [SEQ ID NO: 73] | + |  |
| (GGG)KARPKPGG [SEQ ID NO: 105] | + |  |
| (GGG)KKAPKAGG [SEQ ID NO: 108] | + |  |
| (GGG)KKAPKPGG [SEQ ID NO: 106] | + |  |
| (GGG)KKKKKKKK (GGGKKKKKKKK) [SEQ ID NO: 85] | +^3 |  |
| (GGG)KKRAKAGG [SEQ ID NO: 98] | + |  |
| (GGG)KKRAKPGG [SEQ ID NO: 96] | + and ++ |  |
| (GGG)KKRPAPGG [SEQ ID NO: 107] | + |  |
| (GGG)KKRPKAGG [SEQ ID NO: 97] | + and ++ |  |
| (GGG)KKRPKPGG [SEQ ID NO: 68] | +++ | binding to PrPSc in infected mouse brain homogenate samples (Western blot, FIG. 4) [1]: strong binding |
| (GGG)KKRPKPGGGKKRPKPGG [SEQ ID NO: 72] | + |  |
| (GGG)KKRPKPGGGQWNKPSKPKTN [SEQ ID NO: 81] | + |  |
| (GGG)KKRPKPGGWNTGG [SEQ ID NO: 67] | ++ |  |
| (GGG)KKRPKPGGWNTGGSRYPGQGS [SEQ ID NO: 66] | + |  |
| (GGG)KPSKPK [SEQ ID NO: 80] | − |  |
| (GGG)NKPSKPK [SEQ ID NO: 79] | − |  |
| (GGG)NNKQSPWPTKK [SEQ ID NO: 87] | − |  |
| (GGG)QANKPSKPKTN [SEQ ID NO: 89] | + and +++ |  |
| (GGG)QWNAPSKPKTN [SEQ ID NO: 92] | − and + |  |
| (GGG)QWNKASKAKTN [SEQ ID NO: 95] | − |  |
| (GGG)QWNKASKPKTN [SEQ ID NO: 90] | − |  |
| (GGG)QWNKASKPKTN [SEQ ID NO: 99] | +/− |  |
| (GGG)QWNKPSAPKTN [SEQ ID NO: 93] | − and + |  |

| Substance | Western Blot [1] | also measured |
| --- | --- | --- |
| (GGG)QWNKPSKAKTN [SEQ ID NO: 91] | − and + |  |
| (GGG)QWNKPSKPATN [SEQ ID NO: 94] | − and + |  |
| (GGG)QWNKPSKPKTN [SEQ ID NO: 14] | +++ |  |
| (GGG)RPMIHFGNDWEDRYYRENMYR(GG)C [SEQ ID NO: 76] | − |  |
| (GGG)WNKPSKPKT [SEQ ID NO: 75] | − |  |
| (GGGG)C(GG)GGWGQGGGTHNQWNKPSKPKTNLKHV(GGGG)C [SEQ ID NO: 35] | + |  |
| (GGGG)GGWGQGGGTHNQWNKPSKPKTNLKHV [SEQ ID NO: 36] | + |  |
| (KKK)AGAAAAGAVVGGLGG [SEQ ID NO: 65] | ++ |  |
| (KKK)AGAAAAGAVVGGLGGYMLGSAM [SEQ ID NO: 57] | + |  |
| C(GG)GGWGQGGGTHNQWNKPSKPKTNLKHV(GGGG)C [SEQ ID NO: 40] | + |  |
| DDDAGAAAAGAVVGGLGGYMLGSAM [SEQ ID NO: 83] | − |  |
| DDDAGAAAAGAVVGGLGGYMLGSAMDDD [SEQ ID NO: 86] | − |  |
| DKDKGGVGALAGAAVAAGGDKDK [SEQ ID NO: 88] | − |  |
| GGTHNQWNKPSKPKTN [SEQ ID NO: 54] | + |  |
| GGWGQGGGTHNQWNKPSKPKTN [SEQ ID NO: 53] | + |  |
| GGWGQGGGTHNQWNKPSKPKTNLKHV(GGGG) [SEQ ID NO: 37] | + |  |
| KKKAGAAAAGAVVGGLGGYMLGSAMDDD [SEQ ID NO: 82] | − |  |
| KKKAGAAAAGAVVGGLGGYMLGSAMKKK [SEQ ID NO: 84] | + |  |
| PHGGGWGQ [SEQ ID NO: 71] | − |  |
| PHGGGWGQHGGSWGQPHGGSWGQ [SEQ ID NO: 69] | − |  |
| PHGGGWGQPHGGSWGQ [SEQ ID NO: 70] | − |  |
| QWNKPSKPKTN(GGG) [SEQ ID NO: 50] | + |  |
| QWNKPSKPKTN(GGG)QWNKPSKPKTN [SEQ ID NO: 51] | +++ | ELISA A405nm [2]: .923 |
| QWNKPSKPKTNLKHV(GGG) [SEQ ID NO: 77] | ++ |  |
| RPMIHFGNDWEDRYYRENMYR(GGG) [SEQ ID NO: 44] | − |  |
